Measured values as given in patent publication US6914045B2, “Glycopeptide antibiotics” (Wyeth Holdings Corporation, priority 2001, dated 2005).

Tests used:
Streptococcus sp. = test: in vitro antibacterial evaluation, MIC by broth dilution; assay type: cell-based; details: broth dilution, 18 hours at 35° C.
In short: (§1)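 Step 1: dilute antibiotic across 64-0.06 μg/mL in Muller-Hinton II […]. Step 2: inoculate at 5×10^5 CFU/mL.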

Enterococcus sp. = test: as above; assay type: cell-based; details: broth dilution, 18 hours at 35° C.
In short: as §1

Staphylococcus sp. = test: as above; assay type: cell-based; details: broth dilution, 18 hours at 35° C.
In short: as §1

Escherichia coli = test: as above; assay type: cell-based; details: 18 hours at 35° C.
In short: as §1

[1] = test system: Staphylococcus aureus-SMITH (GC 4543); test: acute lethal infection in mice; assay type: in vivo; details: acute lethal infection, female CD-1 mice, intraperitoneal challenge, intravenous 30 min. after infection, 7 day survival
In short: (§2)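 ED50 from 7 day survival ratios pooled over 3 separate tests. Female CD-1 mice, 20+/−2 gm, ip bacterial challenge (trypticase soy broth or hog gastric mucin) lethal to untreated controls in 24-48 hr; iv dosing 30 min after infection in saline or 5% dextrose, n=5/dose.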

[2] = test system: Enterococcus faecalis (GC 6189); test: acute lethal infection in mice; assay type: in vivo; details: female CD-1 mice, intraperitoneal challenge, intravenous 30 min. after infection, 7 day survival
In short: as §2

Cc1ccc(CC2OCC3OC(OC4C(CO)OC(Oc5ccc(CC6NC(=O)C(C(C)c7ccccc7)NC(=O)CNC(=O)C(CO)NC(=O)C(C(O)C7CNC(=N)N7C7OC(CO)C(O)C(O)C7O)NC(=O)C(C(O)C7CNC(=N)N7)NC6=O)cc5)C(O)C4O)C(O)C(O)C3O2)cc1 (stereo not drawn) [Example 119, Cyclo[glycyl-β-methylphenylalanyl-O-[4-O-[4,6-O-(4-methylphenethylidene)hexopyranosyl]-hexopyranosyl]tyrosyl-3-(2-iminoimidazolidin-4-yl)seryl-3-(3-hexopyranosyl-2-iminoimidazolidin-4-yl)serylseryl]]
1 µg/mL: MIC Streptococcus pneumoniae (GC 4565) (Streptococcus sp.; Streptococcus pneumoniae (GC 4565)) | MIC Streptococcus pneumoniae (GC 4565) (Streptococcus sp.; strain GC 4565) | MIC Enterococcus faecium (GC 4557) (Enterococcus sp.; Enterococcus faecium (GC 4557)) | MIC Enterococcus faecium (GC 4557) (Enterococcus sp.; strain GC 4557) | MIC Coagulase Negative Staphylococcus (GC 4547) (Staphylococcus sp.) | MIC Coagulase Negative Staphylococcus (GC 4548) (Staphylococcus sp.) | MIC Coagulase Negative Staphylococcus (GC 4549) (Staphylococcus sp.) | MIC Coagulase Negative Staphylococcus (GC 4551) (Staphylococcus sp.) | MIC Staphylococcus aureus (ATCC 29213) (Staphylococcus sp.) | MIC Staphylococcus aureus (GC 1131) (Staphylococcus sp.) | MIC Staphylococcus aureus (GC 3051) (Staphylococcus sp.) | MIC Staphylococcus aureus (GC 4541) (Staphylococcus sp.) | MIC Staphylococcus aureus (GC 4542) (Staphylococcus sp.) | MIC Staphylococcus aureus (GC 4544) (Staphylococcus sp.) | MIC Staphylococcus aureus (GC 4545) (Staphylococcus sp.) | MIC Staphylococcus aureus-SMITH (GC 4543) (Staphylococcus sp.) | MIC Staphylococcus haemolyticus (GC 4546) (Staphylococcus sp.) | MIC Staphylococcus aureus (GC 1131) (Staphylococcus sp.; inoculum 5×10^5 CFU/mL, strain GC 1131) | MIC Staphylococcus aureus (ATCC 29213) (Staphylococcus sp.; strain ATCC 29213) | MIC Staphylococcus aureus (GC 3051) (Staphylococcus sp.; strain GC 3051) | MIC Staphylococcus aureus (GC 4541) (Staphylococcus sp.; strain GC 4541) | MIC Staphylococcus aureus (GC 4542) (Staphylococcus sp.; strain GC 4542) | MIC Staphylococcus aureus (GC 4544) (Staphylococcus sp.; strain GC 4544) | MIC Staphylococcus aureus (GC 4545) (Staphylococcus sp.; strain GC 4545) | MIC Staphylococcus haemolyticus (GC 4546) (Staphylococcus sp.; strain GC 4546) | MIC Coagulase Negative Staphylococcus (GC 4547) (Staphylococcus sp.; strain GC 4547) | MIC Coagulase Negative Staphylococcus (GC 4548) (Staphylococcus sp.; strain GC 4548) | MIC Coagulase Negative Staphylococcus (GC 4549) (Staphylococcus sp.; strain GC 4549) | MIC Coagulase Negative Staphylococcus (GC 4551) (Staphylococcus sp.; strain GC 4551) | MIC Staphylococcus aureus-SMITH (GC 4543) (Staphylococcus sp.; strain SMITH GC 4543) | MIC Escherichia coli (GC 4560) (Escherichia coli; strain GC 4560)
32 µg/mL: MIC Escherichia coli (ATCC 25922) (Escherichia coli; strain ATCC 25922) | MIC Escherichia coli (GC 4559) (Escherichia coli; strain GC 4559)
0.19 mg/kg: median effective dose (ED50), Staphylococcus aureus-SMITH (GC 4543) [1]
2 µg/mL: MIC Enterococcus faecalis (ATCC 29212) (Enterococcus sp.; Enterococcus faecalis (ATCC 29212)) | MIC Enterococcus faecalis (GC 2242) (Enterococcus sp.; Enterococcus faecalis (GC 2242)) | MIC Enterococcus faecalis (GC 2691) (Enterococcus sp.; Enterococcus faecalis (GC 2691)) | MIC Enterococcus faecalis (GC 4552) (Enterococcus sp.; Enterococcus faecalis (GC 4552)) | MIC Enterococcus faecalis (GC 4554) (Enterococcus sp.; Enterococcus faecalis (GC 4554)) | MIC Enterococcus faecalis (GC 6189) (Enterococcus sp.; Enterococcus faecalis (GC 6189)) | MIC Enterococcus faecium (GC 4556) (Enterococcus sp.; Enterococcus faecium (GC 4556)) | MIC Enterococcus faecalis (ATCC 29212) (Enterococcus sp.; strain ATCC 29212) | MIC Enterococcus faecalis (GC 2242) (Enterococcus sp.; strain GC 2242) | MIC Enterococcus faecalis (GC 2691) (Enterococcus sp.; strain GC 2691) | MIC Enterococcus faecalis (GC 4552) (Enterococcus sp.; strain GC 4552) | MIC Enterococcus faecalis (GC 4554) (Enterococcus sp.; strain GC 4554) | MIC Enterococcus faecium (GC 4556) (Enterococcus sp.; strain GC 4556) | MIC Enterococcus faecalis (GC 6189) (Enterococcus sp.; strain GC 6189) | MIC Staphylococcus aureus (GC 3053) (Staphylococcus sp.) | MIC Staphylococcus aureus (GC 3053) (Staphylococcus sp.; strain GC 3053)
>64 µg/mL: MIC Enterococcus faecalis (GC 3059) (Enterococcus sp.; Enterococcus faecalis (GC 3059)) | MIC Enterococcus faecalis (GC 3059) (Enterococcus sp.; strain GC 3059)
<0.5 µg/mL: MIC Streptococcus agalactiae (GC 4564) (Streptococcus sp.; Streptococcus agalactiae (GC 4564)) | MIC Streptococcus pneumoniae (ATCC 6301) (Streptococcus sp.; Streptococcus pneumoniae (ATCC 6301)) | MIC Streptococcus pneumoniae (GC 1894) (Streptococcus sp.; Streptococcus pneumoniae (GC 1894)) | MIC Streptococcus pyogenes (GC 4563) (Streptococcus sp.; Streptococcus pyogenes (GC 4563)) | MIC Streptococcus pneumoniae (ATCC 6301) (Streptococcus sp.; strain ATCC 6301) | MIC Streptococcus pneumoniae (GC 1894) (Streptococcus sp.; strain GC 1894) | MIC Streptococcus pyogenes (GC 4563) (Streptococcus sp.; strain GC 4563) | MIC Streptococcus agalactiae (GC 4564) (Streptococcus sp.; strain GC 4564) | MIC Coagulase Negative Staphylococcus (GC 6257) (Staphylococcus sp.) | MIC Coagulase Negative Staphylococcus (GC 6257) (Staphylococcus sp.; strain GC 6257)
4 µg/mL: MIC Enterococcus avium (GC 4558) (Enterococcus sp.; Enterococcus avium (GC 4558)) | MIC Enterococcus faecalis (GC 4553) (Enterococcus sp.; Enterococcus faecalis (GC 4553)) | MIC Enterococcus faecium (GC 2243) (Enterococcus sp.; Enterococcus faecium (GC 2243)) | MIC Enterococcus faecium (GC 2243) (Enterococcus sp.; strain GC 2243) | MIC Enterococcus faecalis (GC 4553) (Enterococcus sp.; strain GC 4553) | MIC Enterococcus avium (GC 4558) (Enterococcus sp.; strain GC 4558)
0.41 mg/kg: median effective dose (ED50), Enterococcus faecalis (GC 6189) [2]
